Values after ≈ are worked out from the molar mass of the structure shown.
Assays:
Staphylococcus aureus [1] = assay: Antibacterial activity against methicillin-resistant Staphylococcus aureus after 18 to 20 hrs by CLSI-protocol based broth microdilution method; format: functional
[2] = tested on: Staphylococcus epidermidis; assay: Antibacterial activity against methicillin-resistant Staphylococcus epidermidis after 18 to 20 hrs by CLSI-protocol based broth microdilution method; format: functional
Streptococcus pneumoniae = assay: Antibacterial activity against penicillin-resistant Streptococcus pneumoniae after 18 to 20 hrs by CLSI-protocol based broth microdilution method; format: functional
Streptococcus pyogenes = assay: Antibacterial activity against Streptococcus pyogenes after 18 to 20 hrs by CLSI-protocol based broth microdilution method; format: functional
Neisseria gonorrhoeae = assay: Antibacterial activity against Neisseria gonorrhoeae after 18 to 20 hrs by CLSI-protocol based agar microdilution method; format: functional
[3] = Tmax in CD1 mouse at 10 mg/kg, po by LC-MS/MS analysis; format: ADME, organism-based; details: in vivo
[4] = target: Voltage-gated inwardly rectifying potassium channel KCNH2 (Homo sapiens, UniProt Q12809); assay: Inhibition of human ERG expressed in CHO cells in at -80 mV holding potential by automated Qpatch clamp assay; format: cell-based
Voltage-gated inwardly rectifying potassium channel KCNH2, sequence (Q12809 whole entry): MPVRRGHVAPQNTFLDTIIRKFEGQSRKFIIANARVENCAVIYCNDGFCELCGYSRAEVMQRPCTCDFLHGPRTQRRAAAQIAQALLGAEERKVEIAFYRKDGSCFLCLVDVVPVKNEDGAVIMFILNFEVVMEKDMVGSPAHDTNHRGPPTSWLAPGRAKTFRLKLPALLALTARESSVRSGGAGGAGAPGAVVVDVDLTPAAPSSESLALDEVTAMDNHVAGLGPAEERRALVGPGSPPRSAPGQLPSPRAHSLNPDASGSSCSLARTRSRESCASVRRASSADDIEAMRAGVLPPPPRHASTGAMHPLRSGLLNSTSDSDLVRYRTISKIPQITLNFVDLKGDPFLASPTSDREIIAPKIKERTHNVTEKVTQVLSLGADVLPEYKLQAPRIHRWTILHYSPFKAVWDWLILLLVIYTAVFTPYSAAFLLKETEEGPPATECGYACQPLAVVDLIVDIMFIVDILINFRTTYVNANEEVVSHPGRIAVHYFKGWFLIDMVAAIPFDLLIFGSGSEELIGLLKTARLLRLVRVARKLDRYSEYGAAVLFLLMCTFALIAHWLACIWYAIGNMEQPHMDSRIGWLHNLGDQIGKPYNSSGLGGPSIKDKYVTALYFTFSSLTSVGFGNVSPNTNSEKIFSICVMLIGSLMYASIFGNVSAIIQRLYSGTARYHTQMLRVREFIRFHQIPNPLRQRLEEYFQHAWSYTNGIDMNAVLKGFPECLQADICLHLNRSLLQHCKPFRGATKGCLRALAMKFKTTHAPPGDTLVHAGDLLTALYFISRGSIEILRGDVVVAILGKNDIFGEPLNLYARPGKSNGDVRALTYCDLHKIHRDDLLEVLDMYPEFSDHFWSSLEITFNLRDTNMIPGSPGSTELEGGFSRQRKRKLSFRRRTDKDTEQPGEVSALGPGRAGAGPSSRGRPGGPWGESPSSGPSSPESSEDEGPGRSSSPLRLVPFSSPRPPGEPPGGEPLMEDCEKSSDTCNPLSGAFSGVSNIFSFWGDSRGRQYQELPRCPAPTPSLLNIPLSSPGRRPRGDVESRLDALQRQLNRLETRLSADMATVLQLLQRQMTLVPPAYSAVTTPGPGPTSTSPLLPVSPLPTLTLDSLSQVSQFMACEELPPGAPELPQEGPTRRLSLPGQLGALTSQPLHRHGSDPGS

[5] = target: DNA topoisomerase 2-alpha (Homo sapiens, UniProt P11388); assay: Inhibition of human topoisomerase-2alpha using catenated DNA as substrate after 30 mins by ethidium bromide-based gel electrophoresis
DNA topoisomerase 2-alpha, sequence (P11388 whole entry): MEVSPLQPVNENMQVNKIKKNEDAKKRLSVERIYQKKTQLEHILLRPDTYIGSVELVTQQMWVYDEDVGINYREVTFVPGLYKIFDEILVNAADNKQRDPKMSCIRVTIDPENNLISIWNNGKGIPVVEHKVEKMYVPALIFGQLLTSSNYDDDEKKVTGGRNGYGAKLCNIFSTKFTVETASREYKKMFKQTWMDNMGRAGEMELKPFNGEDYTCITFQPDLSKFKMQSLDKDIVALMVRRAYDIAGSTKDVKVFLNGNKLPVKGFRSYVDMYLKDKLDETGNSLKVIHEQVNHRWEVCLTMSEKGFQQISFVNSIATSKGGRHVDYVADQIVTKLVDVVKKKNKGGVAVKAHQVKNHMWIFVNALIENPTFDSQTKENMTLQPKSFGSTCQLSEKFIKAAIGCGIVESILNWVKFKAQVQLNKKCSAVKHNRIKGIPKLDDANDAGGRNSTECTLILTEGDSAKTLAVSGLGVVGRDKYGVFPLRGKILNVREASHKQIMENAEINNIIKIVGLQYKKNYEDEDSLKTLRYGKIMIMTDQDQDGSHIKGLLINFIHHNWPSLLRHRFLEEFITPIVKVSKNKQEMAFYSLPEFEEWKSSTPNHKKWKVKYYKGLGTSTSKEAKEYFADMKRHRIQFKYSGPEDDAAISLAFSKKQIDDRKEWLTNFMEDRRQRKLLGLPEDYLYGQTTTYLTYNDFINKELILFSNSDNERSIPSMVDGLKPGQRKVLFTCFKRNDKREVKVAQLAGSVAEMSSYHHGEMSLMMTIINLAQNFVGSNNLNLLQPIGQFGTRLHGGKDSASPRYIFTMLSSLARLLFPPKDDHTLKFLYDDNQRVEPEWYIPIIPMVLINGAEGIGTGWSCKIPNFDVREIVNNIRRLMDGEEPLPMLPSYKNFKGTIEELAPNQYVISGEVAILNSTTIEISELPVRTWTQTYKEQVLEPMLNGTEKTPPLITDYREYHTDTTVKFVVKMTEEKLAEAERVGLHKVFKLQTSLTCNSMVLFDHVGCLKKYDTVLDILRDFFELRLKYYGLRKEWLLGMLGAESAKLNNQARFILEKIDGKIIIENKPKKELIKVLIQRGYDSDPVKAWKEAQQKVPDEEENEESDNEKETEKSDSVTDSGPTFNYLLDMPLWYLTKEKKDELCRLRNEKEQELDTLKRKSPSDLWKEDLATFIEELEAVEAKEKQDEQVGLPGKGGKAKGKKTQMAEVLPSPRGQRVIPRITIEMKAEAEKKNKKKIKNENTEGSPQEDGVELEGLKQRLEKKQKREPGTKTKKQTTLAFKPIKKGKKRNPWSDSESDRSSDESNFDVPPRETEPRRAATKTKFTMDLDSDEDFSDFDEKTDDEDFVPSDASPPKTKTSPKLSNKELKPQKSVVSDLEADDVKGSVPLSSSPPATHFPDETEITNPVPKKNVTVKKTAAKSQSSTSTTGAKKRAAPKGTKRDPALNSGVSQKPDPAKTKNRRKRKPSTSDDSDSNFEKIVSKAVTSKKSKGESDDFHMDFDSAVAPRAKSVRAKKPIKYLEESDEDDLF

DNA gyrase = DNA gyrase (Staphylococcus aureus, UniProt P0A0K8+P20831)
DNA gyrase, sequence (P0A0K8 whole entry): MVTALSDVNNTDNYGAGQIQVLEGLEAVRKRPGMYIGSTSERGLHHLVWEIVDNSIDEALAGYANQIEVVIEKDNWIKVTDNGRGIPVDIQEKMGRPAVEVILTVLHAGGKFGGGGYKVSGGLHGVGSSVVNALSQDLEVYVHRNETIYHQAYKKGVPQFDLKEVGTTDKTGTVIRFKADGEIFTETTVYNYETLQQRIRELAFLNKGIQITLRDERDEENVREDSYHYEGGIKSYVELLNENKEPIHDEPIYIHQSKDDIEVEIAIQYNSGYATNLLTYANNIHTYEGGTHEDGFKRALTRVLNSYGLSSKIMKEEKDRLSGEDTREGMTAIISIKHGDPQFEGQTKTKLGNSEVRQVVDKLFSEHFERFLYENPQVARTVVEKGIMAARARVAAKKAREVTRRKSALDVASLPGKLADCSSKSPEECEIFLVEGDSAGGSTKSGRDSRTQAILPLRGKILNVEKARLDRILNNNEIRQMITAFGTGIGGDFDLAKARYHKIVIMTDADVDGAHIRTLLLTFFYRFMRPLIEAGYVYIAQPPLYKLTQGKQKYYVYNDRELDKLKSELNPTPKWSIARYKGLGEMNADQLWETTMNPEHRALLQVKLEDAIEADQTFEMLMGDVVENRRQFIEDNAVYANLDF
DNA gyrase, sequence (P20831 whole entry): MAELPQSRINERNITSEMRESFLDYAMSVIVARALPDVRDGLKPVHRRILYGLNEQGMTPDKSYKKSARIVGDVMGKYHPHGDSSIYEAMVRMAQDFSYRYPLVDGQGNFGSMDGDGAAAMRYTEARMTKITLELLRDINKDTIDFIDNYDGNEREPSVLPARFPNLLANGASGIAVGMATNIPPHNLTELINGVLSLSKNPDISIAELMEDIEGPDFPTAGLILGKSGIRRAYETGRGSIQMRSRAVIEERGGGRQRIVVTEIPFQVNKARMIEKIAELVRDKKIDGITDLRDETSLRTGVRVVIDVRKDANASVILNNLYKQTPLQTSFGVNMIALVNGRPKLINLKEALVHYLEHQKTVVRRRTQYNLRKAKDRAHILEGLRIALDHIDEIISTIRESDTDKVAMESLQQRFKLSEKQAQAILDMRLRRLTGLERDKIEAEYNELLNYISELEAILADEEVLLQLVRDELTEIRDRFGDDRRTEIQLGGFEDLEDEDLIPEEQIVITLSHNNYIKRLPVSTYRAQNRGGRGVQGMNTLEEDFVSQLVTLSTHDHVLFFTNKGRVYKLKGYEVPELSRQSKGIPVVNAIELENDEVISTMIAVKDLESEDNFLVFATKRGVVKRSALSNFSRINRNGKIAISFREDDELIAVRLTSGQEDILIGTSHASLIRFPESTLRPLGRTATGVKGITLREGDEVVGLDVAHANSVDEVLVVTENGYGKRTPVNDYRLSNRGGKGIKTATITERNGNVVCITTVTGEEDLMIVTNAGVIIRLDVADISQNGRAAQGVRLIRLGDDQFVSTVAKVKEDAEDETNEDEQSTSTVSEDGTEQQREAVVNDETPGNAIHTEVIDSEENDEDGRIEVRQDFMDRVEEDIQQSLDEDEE
Description: Inhibition of Staphylococcus aureus DNA gyrase supercoiling activity using relaxed pHOT-1 DNA as substrate after 60 mins by ethidium bromide-based gel electrophoresis

Cytochrome P450 3A4 [6] = target: T1, Cytochrome P450 3A4 (Homo sapiens, UniProt P08684); assay: Inhibition of CYP3A4 in human liver microsomes using midazolam as substrate preincubated for 10 mins followed by NADPH addition and measured for 15 mins by LC-MS/MS analysis; format: ADME
T1 sequence (P08684 whole entry): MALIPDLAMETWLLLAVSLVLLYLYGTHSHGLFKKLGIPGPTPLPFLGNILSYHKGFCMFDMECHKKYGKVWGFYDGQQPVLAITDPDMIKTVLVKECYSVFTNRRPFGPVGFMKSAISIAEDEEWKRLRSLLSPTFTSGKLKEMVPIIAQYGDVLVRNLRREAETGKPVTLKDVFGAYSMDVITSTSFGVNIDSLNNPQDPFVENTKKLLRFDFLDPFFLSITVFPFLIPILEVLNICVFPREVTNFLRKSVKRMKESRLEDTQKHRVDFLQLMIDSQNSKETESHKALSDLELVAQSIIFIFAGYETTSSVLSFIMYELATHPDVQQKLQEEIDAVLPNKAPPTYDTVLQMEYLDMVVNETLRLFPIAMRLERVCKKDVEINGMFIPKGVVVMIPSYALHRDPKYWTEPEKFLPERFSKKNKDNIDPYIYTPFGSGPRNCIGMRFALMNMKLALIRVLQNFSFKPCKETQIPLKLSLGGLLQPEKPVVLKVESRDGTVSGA

Staphylococcus aureus [7] = assay: Antibacterial activity against methicillin-sensitive Staphylococcus aureus after 18 to 20 hrs by CLSI-protocol based broth microdilution method; format: functional; details: Staphylococcus aureus; read-out: MIC
[8] = AUCt in CD1 mouse at 10 mg/kg, po by LC-MS/MS analysis; format: ADME, organism-based; details: in vivo
[9] = MRT in CD1 mouse at 10 mg/kg, po by LC-MS/MS analysis; format: ADME, organism-based; details: in vivo
[10] = Cmax in CD1 mouse at 10 mg/kg, po by LC-MS/MS analysis; format: ADME, organism-based; set-up: dose 10 mg/kg, route oral; details: in vivo
[11] = Elimination half life in CD1 mouse at 10 mg/kg, po by LC-MS/MS analysis; format: ADME, organism-based; details: in vivo, read-out: beta t1/2 (converted)
[12] = AUCt in Sprague-Dawley rat at 10 mg/kg, iv by LC-MS/MS analysis; format: ADME, organism-based; details: in vivo
[13] = AUCt in Sprague-Dawley rat at 10 mg/kg, po by LC-MS/MS analysis; format: ADME, organism-based; details: in vivo
[14] = AUCt in Sprague-Dawley rat at 100 mg/kg, po by LC-MS/MS analysis; format: ADME, organism-based; details: in vivo
[15] = Cmax in Sprague-Dawley rat at 10 mg/kg, po by LC-MS/MS analysis; format: ADME, organism-based; set-up: dose 10 mg/kg, route oral; details: in vivo
[16] = Cmax in Sprague-Dawley rat at 100 mg/kg, po by LC-MS/MS analysis; format: ADME, organism-based; set-up: dose 100 mg/kg, route oral; details: in vivo
[17] = Elimination half life in Sprague-Dawley rat at 10 mg/kg, iv by LC-MS/MS analysis; format: ADME, organism-based; details: in vivo, read-out: beta t1/2 (converted)
[18] = Elimination half life in Sprague-Dawley rat at 10 mg/kg, po by LC-MS/MS analysis; format: ADME, organism-based; details: in vivo, read-out: beta t1/2 (converted)
[19] = Elimination half life in Sprague-Dawley rat at 100 mg/kg, po by LC-MS/MS analysis; format: ADME, organism-based; details: in vivo, read-out: beta t1/2 (converted)
[20] = Clearance in Sprague-Dawley rat at 10 mg/kg, iv by LC-MS/MS analysis; format: ADME, organism-based; details: in vivo
[21] = Volume of distribution at steady state in Sprague-Dawley rat at 10 mg/kg, iv by LC-MS/MS analysis; format: ADME, organism-based; details: in vivo, read-out: Vdss
[22] = Oral bioavailability in Sprague-Dawley rat at 10 mg/kg by LC-MS/MS analysis; format: ADME, organism-based; details: in vivo
[23] = Oral bioavailability in Sprague-Dawley rat at 100 mg/kg by LC-MS/MS analysis; format: ADME, organism-based; details: in vivo
[24] = AUCt in Beagle dog at 2.5 mg/kg, iv by LC-MS/MS analysis; format: ADME, organism-based, Canis lupus familiaris; details: in vivo
[25] = AUCt in Beagle dog at 5 mg/kg, po by LC-MS/MS analysis; format: ADME, organism-based, Canis lupus familiaris; details: in vivo
[26] = Cmax in Beagle dog at 5 mg/kg, po by LC-MS/MS analysis; format: ADME, organism-based, Canis lupus familiaris; set-up: dose 5 mg/kg, route oral; details: in vivo
[27] = Elimination half life in Beagle dog at 2.5 mg/kg, iv by LC-MS/MS analysis; format: ADME, organism-based, Canis lupus familiaris; details: in vivo, read-out: beta t1/2 (converted)
[28] = Elimination half life in Beagle dog at 5 mg/kg, po by LC-MS/MS analysis; format: ADME, organism-based, Canis lupus familiaris; details: in vivo, read-out: beta t1/2 (converted)
[29] = Clearance in Beagle dog at 2.5 mg/kg, iv by LC-MS/MS analysis; format: ADME, organism-based, Canis lupus familiaris; details: in vivo
[30] = Volume of distribution at steady state in Beagle dog at 2.5 mg/kg, iv by LC-MS/MS analysis; format: ADME, organism-based, Canis lupus familiaris; details: in vivo, read-out: Vdss
[31] = Oral bioavailability in Beagle dog at 5 mg/kg by LC-MS/MS analysis; format: ADME, organism-based, Canis lupus familiaris; details: in vivo
[32] = Solubility of the compound in pH 6.8 intestinal juice incubated at 37 degC for 24 hrs by LC/MS/MS analysis; format: physicochemical
[33] = Solubility of the compound in pH 1.2 gastric juice incubated at 37 degC for 24 hrs by LC/MS/MS analysis; format: physicochemical
[34] = Solubility of the compound in water incubated at 37 degC for 24 hrs by LC/MS/MS analysis; format: physicochemical
Cytochrome P450 1A2 = target: T2, Cytochrome P450 1A2 (Homo sapiens, UniProt P05177); assay: Inhibition of CYP1A2 in human liver microsomes using phenacetin as substrate preincubated for 10 mins followed by NADPH addition and measured for 15 mins by LC-MS/MS analysis; format: ADME
T2 sequence (P05177 whole entry): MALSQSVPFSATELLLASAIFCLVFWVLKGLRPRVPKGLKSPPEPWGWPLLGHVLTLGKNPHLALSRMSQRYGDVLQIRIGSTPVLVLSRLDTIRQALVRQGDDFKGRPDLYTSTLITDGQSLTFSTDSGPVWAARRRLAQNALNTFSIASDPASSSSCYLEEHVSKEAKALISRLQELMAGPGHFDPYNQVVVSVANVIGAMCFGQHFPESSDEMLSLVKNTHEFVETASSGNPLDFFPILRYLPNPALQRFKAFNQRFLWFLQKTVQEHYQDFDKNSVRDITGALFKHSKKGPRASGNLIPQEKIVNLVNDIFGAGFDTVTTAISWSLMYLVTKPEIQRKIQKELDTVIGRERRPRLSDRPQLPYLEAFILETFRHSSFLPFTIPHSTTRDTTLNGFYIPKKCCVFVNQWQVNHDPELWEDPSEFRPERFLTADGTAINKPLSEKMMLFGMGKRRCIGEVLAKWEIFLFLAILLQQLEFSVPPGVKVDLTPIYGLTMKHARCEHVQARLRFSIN

Cytochrome P450 2C19 = Cytochrome P450 2C19 (Homo sapiens, UniProt P33261); assay: Inhibition of CYP2C19 in human liver microsomes using mephenytoin as substrate preincubated for 10 mins followed by NADPH addition and measured for 15 mins by LC-MS/MS analysis; format: ADME
Cytochrome P450 2C9 = Cytochrome P450 2C9 (Homo sapiens, UniProt P11712); assay: Inhibition of CYP2C9 in human liver microsomes using tolbutamide as substrate preincubated for 10 mins followed by NADPH addition and measured for 15 mins by LC-MS/MS analysis; format: ADME
Cytochrome P450 2D6 = Cytochrome P450 2D6 (Homo sapiens, UniProt P10635); assay: Inhibition of CYP2D6 in human liver microsomes using dextromethorphan as substrate preincubated for 10 mins followed by NADPH addition and measured for 15 mins by LC-MS/MS analysis; format: ADME
Cytochrome P450 3A4 [35] = target: T1, Cytochrome P450 3A4; assay: Inhibition of CYP3A4 in human liver microsomes using testosterone as substrate preincubated for 10 mins followed by NADPH addition and measured for 15 mins by LC-MS/MS analysis; format: ADME
Staphylococcus aureus [36] = assay: Antibacterial activity against methicillin-sensitive Staphylococcus aureus infected in Kunming mouse dosed subcutaneously at 0.5 and 4.0 hrs postinfection and measured at 7 to 14 days post treatment by Bliss method; format: functional; details: sc
Staphylococcus aureus [37] = assay: Antibacterial activity against methicillin-resistant Staphylococcus aureus infected in Kunming mouse dosed subcutaneously at 0.5 and 4.0 hrs postinfection and measured at 7 to 14 days post treatment by Bliss method; format: functional; details: sc
[38] = tested on: Staphylococcus epidermidis; assay: Antibacterial activity against methicillin-sensitive Staphylococcus epidermidis after 18 to 20 hrs by CLSI-protocol based broth microdilution method; format: functional
[39] = Streptococcus pyogenes, read-out: MIC

C[C@@H]1CN2c3c(cc4c(N5C[C@@H](C)SC5=O)noc4c3F)CC3(C(=O)NC(=O)NC3=O)[C@H]2[C@H](C)O1
MIC (Staphylococcus aureus [1]): 0.03 to 0.25 µg/mL (≈ 0.0596 to 0.497 µM) | MIC [2]: 0.03 to 0.06 µg/mL (≈ 0.0596 to 0.119 µM) | MIC (Streptococcus pneumoniae): ≤ 0.03 µg/mL | MIC (Streptococcus pyogenes; [39]): < 0.03 µg/mL | MIC50 (Neisseria gonorrhoeae): 0.03 µg/mL (≈ 0.0596 µM) | MIC90 (Neisseria gonorrhoeae): 0.125 µg/mL (≈ 0.248 µM) | Tmax [3]: 0.58 h | IC50 [4]: > 40 µM | IC50 [5]: > 200 µM | IC50 (DNA gyrase): 15.3 µM

C[C@@H]1CN2c3c(cc4c(N5CC6(CC6)OC5=O)noc4c3F)CC3(C(=O)NC(=O)NC3=O)[C@H]2[C@H](C)O1
IC50 (Cytochrome P450 3A4 [6]): > 25 µM | MIC (Staphylococcus aureus [7]): ≤ 0.03 µg/mL | MIC (Streptococcus pyogenes): <0.03 µg/mL | MIC50 (Neisseria gonorrhoeae): 0.06 µg/mL (≈ 0.12 µM) | MIC90 (Neisseria gonorrhoeae): 0.125 µg/mL (≈ 0.25 µM) | AUC(0-t) [8]: 24200 ng·h/mL | MRT [9]: 8.94 h | Cmax [10]: 2580 ng/mL | Tmax [3]: 2.67 h | half-life [11]: 6.2 h | AUC(0-t) [12]: 104000 ng·h/mL | AUC(0-t) [13]: 23600 ng·h/mL | AUC(0-t) [14]: 478000 ng·h/mL | Cmax [15]: 2260 ng/mL | Cmax [16]: 35400 ng/mL | half-life [17]: 3.82 h | half-life [18]: 3.71 h | half-life [19]: 5.58 h | clearance [20]: 1.57 mL/min/kg | Vd [21]: 0.482 L/kg | bioavailability [22]: 22.6% | bioavailability [23]: 45.8% | AUC(0-t) [24]: 9100 ng·h/mL | AUC(0-t) [25]: 17500 ng·h/mL | Cmax [26]: 2860 ng/mL | half-life [27]: 3.49 h | half-life [28]: 3.65 h | clearance [29]: 4.91 mL/min/kg | Vd [30]: 1 L/kg | bioavailability [31]: 96.6% | solubility at 24 h [32]: 204 µM (≈ 102 µg/mL) | solubility at 24 h [33]: 151 µM (≈ 75.4 µg/mL) | solubility at 24 h [34]: 277 µM (≈ 138 µg/mL) | IC50 [4]: > 40 µM | IC50 (Cytochrome P450 1A2): 13 µM | IC50 (Cytochrome P450 2C19): > 25 µM | IC50 (Cytochrome P450 2C9): > 25 µM | IC50 (Cytochrome P450 2D6): > 25 µM | IC50 (Cytochrome P450 3A4 [35]): > 25 µM | IC50 [5]: > 200 µM | ED50 (Staphylococcus aureus [36]): 8.37 mg/kg | ED50 (Staphylococcus aureus [37]): 3.87 mg/kg | IC50 (DNA gyrase): 7.8 µM

C[C@@H]1CN2c3c(cc4c(N5C(=O)SC[C@@H]5C)noc4c3F)CC3(C(=O)NC(=O)NC3=O)[C@H]2[C@H](C)O1
MIC (Staphylococcus aureus [7]): 0.25 to 0.5 µg/mL (≈ 0.497 to 0.993 µM) | MIC (Staphylococcus aureus [1]): 0.03 to 0.125 µg/mL (≈ 0.0596 to 0.248 µM) | MIC [38]: 0.03 to 0.125 µg/mL (≈ 0.0596 to 0.248 µM) | MIC [2]: 0.06 to 0.25 µg/mL (≈ 0.119 to 0.497 µM) | MIC (Streptococcus pneumoniae): 0.125 to 1 µg/mL (≈ 0.248 to 1.99 µM) | MIC (Streptococcus pyogenes; [39]): 0.125 to 0.25 µg/mL (≈ 0.248 to 0.497 µM) | IC50 [5]: > 200 µM | IC50 (DNA gyrase): 15.6 µM

— ChEMBL document CHEMBL4316588, “Design, Synthesis, and Biological Evaluation of Novel DNA Gyrase-Inhibiting Spiropyrimidinetriones as Potent Antibiotics for Treatment of Infections Caused by Multidrug-Resistant Gram-Positive Bacteria” (J Med Chem, 2019)
